Data as given in PubChem BioAssay AID2060492 (Molecular Pharmacology Branch, DTP, NCI, 2025).

Tested on: 695427-040-R-J1-PDC complex spheroids, viability percent T/C
Experiment: Anticancer human tumor 695427-040-R-J1-PDC patient-derived colon adenocarcinoma cell line growth inhibition [GQUAD]
Details: for IC50: curve of first compound; for viability, T/C: stronger effect = lower value
Excerpt: DNA G-quadruplex Stabilizer Agents in Combinations in Complex Spheroids
A high-throughput screen of multi-cell type tumor spheroids was designed to identify active combinations of DNA G-quadruplex stabilizer agents and targeted small molecules. Complex spheroids include a stromal component modeled by human endothelial cells (HUVEC) and fibroblasts modeled by human mesenchymal stem cells (MSCs). The concentration ranges selected for each drug and investigational agent were based upon clinically achievable concentrations if the clinical Cmax of the agent was known.
Compounds. The drugs and investigational agents: pidnarulex (CX-5461; NSC782164), APTO-253 (NSC789042), BRACO-19 (NSC847499), peposertib (NSC802822), ceralasertib (NSC780249), elimusertib (NSC800525), camonsertib (NSC841442), AZD-1390 (NSC803789), olaparib (NSC753686), talazoparib (NSC767125), ART-558 (NSC835418), sotorasib (NSC818433), MRTX-1133 (NSC836407), SN-38 (NSC673596), topotecan (NSC609699), etoposide (NSC141540), doxorubicin (NSC123127), gemcitabine (NSC613327), 5-fluorouracil (NSC19893), paclitaxel (NSC125973), vemurafenib (NSC761431), panobinostat (NSC761190), R-306465 (JNJ-16241199; NSC773264), adavosertib (NSC754352), TP-3654 (NSC805149), carboplatin (NSC241240), KSQ-4279 (NSC840948), and staurosporine (NSC755774) were obtained from the National Cancer Institute (NCI) Developmental Therapeutics Program Chemical Repository (34). The FDA-approved anticancer drug set is available from the NCI Developmental Therapeutics Program. […] The stock solutions were prepared in dimethyl sulfoxide (DMSO, Sigma-Aldrich, St. Louis, MO, cat. D2650) at 800-fold the tested concentration and stored at -70 degrees C prior to their use. All drugs and investigational agents were tested over a range starting from a high concentration at or near the clinical Cmax and decreasing in half-log increments. If the clinical Cmax for an agent had not been determined, the highest concentration tested was 10 microM.
2.3 Cell Culture. All cells were maintained in an incubator at 37 degrees C and 5% CO2 with 95% humidity. The PDC lines were cultured according to standard operating procedures established by the NCI PDMR. All PDCs were thawed and cultured in Matrigel-coated flasks prepared with a working solution of 1X Ham's F-12 nutrient mix, without supplementation (Invitrogen, cat. 11765054), 100 U/mL penicillin-streptomycin (Invitrogen, cat. 15140122), and 2.5% Matrigel (Corning Inc., cat. 354248) for the first three passages. The 857933-349-R-J2-PDC line was cultured in 6C/Colon 1B media, which includes advanced DMEM/F-12 (Thermo Fisher Scientific, cat. 12634028), 10 mM HEPES (Thermo Fisher Scientific, cat. 15630080), 1X GlutaMAX supplement (Thermo Fisher Scientific, cat. 35050061), 0.1 mg/mL primocin (InvivoGen, cat. ant-pm-2), 10% defined fetal bovine serum, heat inactivated (HyClone Laboratories Inc., cat. SH30070.03HI), 50% L-WRN conditioned media (ATCC, cat. CRL-3276), 1.25 mM N-Acetyl-L-cysteine (Sigma-Aldrich, cat. A9165), 10 mM nicotinamide (Sigma-Aldrich, cat. N0636), 1X B-27 supplement (Thermo Fisher Scientific, cat. 17504044), 1X N-2 supplement (Thermo Fisher Scientific, cat. 17502048), 10 microM Y-27632 dihydrochloride (Tocris Bioscience, cat. 1254), and 50 ng/mL human EGF recombinant protein (Thermo Fisher Scientific, cat. PHG0311). The 485176-168-R4-J1-PDC line was cultured in Panc media, which includes all 6C/Colon 1B media components plus 100 ng/mL human FGF-10 (Thermo Fisher Scientific, cat. 100-26), 500 nM SB-431542 (Selleckchem, cat. S1067), and gastrin (Tocris, cat. 3006).
[…]

[1] = second compound 0.0316 µM, first compound 0.0316 µM
[2] = second compound 0.0316 µM, first compound 0.1 µM
[3] = second compound 0.0316 µM, first compound 0.316 µM
[4] = second compound 0.0316 µM, first compound 1 µM
[5] = second compound 0.0316 µM, first compound 3.16 µM
[6] = second compound 0.0316 µM, first compound 10 µM
[7] = second compound 0.1 µM, first compound 0.0316 µM
[8] = second compound 0.1 µM, first compound 0.1 µM
[9] = second compound 0.1 µM, first compound 0.316 µM
[10] = second compound 0.1 µM, first compound 1 µM
[11] = second compound 0.1 µM, first compound 3.16 µM
[12] = second compound 0.1 µM, first compound 10 µM
[13] = second compound 0.316 µM, first compound 0.0316 µM
[14] = second compound 0.316 µM, first compound 0.1 µM
[15] = second compound 0.316 µM, first compound 0.316 µM
[16] = second compound 0.316 µM, first compound 1 µM
[17] = second compound 0.316 µM, first compound 3.16 µM
[18] = second compound 0.316 µM, first compound 10 µM
[19] = second compound 1 µM, first compound 0.0316 µM
[20] = second compound 1 µM, first compound 0.1 µM
[21] = second compound 1 µM, first compound 0.316 µM
[22] = second compound 1 µM, first compound 1 µM
[23] = second compound 1 µM, first compound 3.16 µM
[24] = second compound 1 µM, first compound 10 µM
[25] = second compound 3.16 µM, first compound 0.0316 µM
[26] = second compound 3.16 µM, first compound 0.1 µM
[27] = second compound 3.16 µM, first compound 0.316 µM
[28] = second compound 3.16 µM, first compound 1 µM
[29] = second compound 3.16 µM, first compound 3.16 µM
[30] = second compound 3.16 µM, first compound 10 µM
[31] = second compound 10 µM, first compound 0.0316 µM
[32] = second compound 10 µM, first compound 0.1 µM
[33] = second compound 10 µM, first compound 0.316 µM
[34] = second compound 10 µM, first compound 1 µM
[35] = second compound 10 µM, first compound 3.16 µM
[36] = second compound 10 µM, first compound 10 µM
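Further: spheroids exposed to compounds for seven days before readout.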

C#Cc1c(F)ccc2cc(O)cc(-c3ncc4c(N5CC6CCC(C5)N6)nc(OCC56CCCN5CC(F)C6)nc4c3F)c12 (stereo unspecified) + Cc1[nH]c2ccc(F)cc2c1-c1nc2c3cccnc3c3ncccc3c2[nH]1
IC50 (second compound 0.0316 µM): 1580 nM | IC50 (second compound 0.1 µM): 1280 nM | IC50 (second compound 0.316 µM): 1010 nM | IC50 (second compound 1 µM): 932 nM | IC50 (second compound 3.16 µM): 444 nM | IC50 (second compound 10 µM): 438 nM | viability, T/C [1]: 105% | viability, T/C [2]: 95.3% | viability, T/C [3]: 99.3% | viability, T/C [4]: 75.5% | viability, T/C [5]: 10.3% | viability, T/C [6]: 11.7% | viability, T/C [7]: 117% | viability, T/C [8]: 91.6% | viability, T/C [9]: 93.7% | viability, T/C [10]: 62.3% | viability, T/C [11]: 7.36% | viability, T/C [12]: 8.21% | viability, T/C [13]: 102% | viability, T/C [14]: 96.7% | viability, T/C [15]: 80.4% | viability, T/C [16]: 55.7% | viability, T/C [17]: 5.93% | viability, T/C [18]: 5.99% | viability, T/C [19]: 86.8% | viability, T/C [20]: 84.5% | viability, T/C [21]: 82.5% | viability, T/C [22]: 48% | viability, T/C [23]: 3.1% | viability, T/C [24]: 2.8% | viability, T/C [25]: 73.6% | viability, T/C [26]: 73.2% | viability, T/C [27]: 62.5% | viability, T/C [28]: 19.9% | viability, T/C [29]: 1.77% | viability, T/C [30]: 1.26% | viability, T/C [31]: 70.8% | viability, T/C [32]: 60.4% | viability, T/C [33]: 61.4% | viability, T/C [34]: 21.9% | viability, T/C [35]: 1.1% | viability, T/C [36]: 1.13%

CC1COCCN1c1cc(C2(O)CC3CCC(C2)O3)c2cnn(-c3ccn[nH]3)c2n1 (stereo unspecified) + Cc1[nH]c2ccc(F)cc2c1-c1nc2c3cccnc3c3ncccc3c2[nH]1
IC50 (second compound 0.0316 µM): 735 nM | IC50 (second compound 0.1 µM): 590 nM | IC50 (second compound 0.316 µM): 569 nM | IC50 (second compound 1 µM): 290 nM | IC50 (second compound 3.16 µM): 253 nM | IC50 (second compound 10 µM): 455 nM | viability, T/C [1]: 83.2% | viability, T/C [2]: 84.2% | viability, T/C [3]: 65.7% | viability, T/C [4]: 42.5% | viability, T/C [5]: 36% | viability, T/C [6]: 24.6% | viability, T/C [7]: 93.8% | viability, T/C [8]: 77.5% | viability, T/C [9]: 70.4% | viability, T/C [10]: 31.4% | viability, T/C [11]: 37.6% | viability, T/C [12]: 28.1% | viability, T/C [13]: 85.2% | viability, T/C [14]: 64% | viability, T/C [15]: 60.6% | viability, T/C [16]: 41.7% | viability, T/C [17]: 37.5% | viability, T/C [18]: 30.2% | viability, T/C [19]: 86.2% | viability, T/C [20]: 55.8% | viability, T/C [21]: 55.2% | viability, T/C [22]: 33.6% | viability, T/C [23]: 41% | viability, T/C [24]: 21.2% | viability, T/C [25]: 67% | viability, T/C [26]: 55.8% | viability, T/C [27]: 50.9% | viability, T/C [28]: 34.2% | viability, T/C [29]: 33.2% | viability, T/C [30]: 17.4% | viability, T/C [31]: 59% | viability, T/C [32]: 59.8% | viability, T/C [33]: 61.7% | viability, T/C [34]: 27.9% | viability, T/C [35]: 30.4% | viability, T/C [36]: 22.3%

COc1cccc2c1C(=O)c1c(O)c3c(c(O)c1C2=O)CC(O)(C(=O)CO)CC3OC1CC(N)C(O)C(C)O1 (stereo unspecified) + Cc1[nH]c2ccc(F)cc2c1-c1nc2c3cccnc3c3ncccc3c2[nH]1
IC50 (second compound 0.0316 µM): > 10000 nM | IC50 (second compound 0.1 µM): > 10000 nM | IC50 (second compound 0.316 µM): > 10000 nM | IC50 (second compound 1 µM): > 10000 nM | IC50 (second compound 3.16 µM): 4850 nM | IC50 (second compound 10 µM): 5560 nM | viability, T/C [1]: 98.6% | viability, T/C [2]: 88.4% | viability, T/C [3]: 96.9% | viability, T/C [4]: 87.1% | viability, T/C [5]: 60.6% | viability, T/C [6]: 50.7% | viability, T/C [7]: 104% | viability, T/C [8]: 98.8% | viability, T/C [9]: 91.3% | viability, T/C [10]: 71.9% | viability, T/C [11]: 74.4% | viability, T/C [12]: 48.9% | viability, T/C [13]: 95.2% | viability, T/C [14]: 77.9% | viability, T/C [15]: 87.1% | viability, T/C [16]: 73.8% | viability, T/C [17]: 71.5% | viability, T/C [18]: 49.6% | viability, T/C [19]: 83% | viability, T/C [20]: 92.4% | viability, T/C [21]: 78.8% | viability, T/C [22]: 72.5% | viability, T/C [23]: 71.2% | viability, T/C [24]: 49.6% | viability, T/C [25]: 59.6% | viability, T/C [26]: 86.8% | viability, T/C [27]: 70.4% | viability, T/C [28]: 59.4% | viability, T/C [29]: 56.8% | viability, T/C [30]: 42.5% | viability, T/C [31]: 65.9% | viability, T/C [32]: 80.1% | viability, T/C [33]: 65% | viability, T/C [34]: 70.9% | viability, T/C [35]: 62.2% | viability, T/C [36]: 37%
